Values quoted from earlier work in patent US10253371B2, “Method of treating leukemia based on gene expression of clock genes” (National Guard Health Affairs, priority 2016, dated 2019).

Legend:
Bcr-Abl tyrosine kinase = settings: more potent than imatinib
Bcr-Abl expressing cells = settings: more potent than imatinib

- potency relative to imatinib in inhibiting Bcr-Abl tyrosine kinase activity (Bcr-Abl tyrosine kinase): 10-30 fold
SMILES: Cc1cn(-c2cc(NC(=O)c3ccc(C)c(Nc4nccc(-c5cccnc5)n4)c3)cc(C(F)(F)F)c2)cn1 [Nilotinib]
- potency relative to imatinib in inhibiting proliferation of Bcr-Abl expressing cells (Bcr-Abl expressing cells): 10-30 fold
